According to patent EP4725957A1, “GROUP OF CYCLIC ALKALINE LIPOPEPTIDE COMPOUNDS, AND PREPARATION METHOD THEREFOR AND USE THEREOF” (Institute of Medicinal Biotechnology, Chinese Academy of …, priority 2023, dated 2024):
≈ marks a conversion by molar mass, not a printed value. Numbered stars: 1 amine (or outer) side, 2 acyl side, 3 side chain; on linkers, the order of the positions; unused ones are H or OH. Bridge positions count the residues as written; N and C are the ends. Square brackets hold non-standard residues; d marks the D form. Peptide text beside a SMILES is read from it. * marks the point of attachment. X3 = O=C([C@@H](Cc1ccc(CS(=O)(=O)O)cc1)N[*:1])[*:2]; Heptanoyl(6-Me) = CC(C)CCCCC(=O)*; Sulfomethyl = O=S(=O)(O)C*; dDab = NCC[C@@H](N)C(=O)O; Octanoyl = CCCCCCCC(=O)*; Orn = NCCC[C@H](N)C(=O)O; Dab = NCC[C@H](N)C(=O)O; Dap = NC[C@H](N)C(=O)O

Columns and labels:
Assay type in all cases: cell-based
[1] = test system: Escherichia coli ATCC BAA-2340 (KPC); conditions: ATCC BAA-2340
Method in brief: (§1)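 Broth microdilution MIC per CLSI in MH broth, compounds 2-fold diluted to final 64–0.03 mg/L. Inoculum (2-4) × 10^5 CFU/mL final, from 0.5 McFarland suspensions of 18-24 h colonies. Plates sealed and incubated 35-37°C for 16-20 h.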

[2] = test system: Klebsiella pneumoniae ATCC BAA-1705 (KPC); conditions: ATCC BAA-1705
Method in brief: as §1

[3] = test system: Acinetobacter baumannii ABA19-1; conditions: ABA19-1
Method in brief: as §1

[4] = test system: Pseudomonas aeruginosa ATCC 27853; conditions: ATCC 27853
Method in brief: as §1

[5] = test system: Pseudomonas aeruginosa PAE19-3; conditions: PAE19-3
Method in brief: as §1

[6] = test system: Klebsiella pneumoniae KPN+19-15; conditions: KPN+19-15
Method in brief: as §1

[7] = test system: Acinetobacter baumannii NCTC 13304 (OXA-27); conditions: NCTC 13304
Method in brief: as §1

[8] = test system: Escherichia coli ATCC BAA-2523; conditions: ATCC BAA-2523
Method in brief: as §1

[9] = Nephrotoxicity assay: in vitro cytotoxicity of HK-2 cells by CCK-8 assay; conditions: human, HK-2 cells (human renal), 72 h incubation with drug-containing medium
Method in brief: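 HK-2 human renal cells in RPMI-1640 with 10% FBS were exposed to compounds at final 12.5–500 µg/mL for 72 h, then CCK-8 for 3 h and OD450 read. Viability was normalised to drug-free wells; IC50 came from logarithmic regression over three repeats, with polymyxin B as positive drug.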

| Compound | MIC [1] | MIC [2] | MIC [3] | MIC [4] | MIC [5] | MIC [6] | MIC [7] | MIC [8] | IC50 at 72 h [9] |
| --- | --- | --- | --- | --- | --- | --- | --- | --- | --- |
| CC(C)CCCCC(=O)N[C@@H](CCN)C(=O)N[C@H](C(=O)N[C@H](CO)C(=O)N[C@H]1CCNC(=O)[C@H]([C@@H](C)O)NC(=O)[C@H](CCN)NC(=O)[C@H](CCCN)NC(=O)[C@H]([C@@H](C)O)NC(=O)[C@@H](Cc2ccccc2)NC(=O)[C@H](CCN)NC1=O)[C@@H](C)O [Compound 77, 6-methylheptanoyl-Dab-Thr-D-Ser-ring(4-10)[Dab-Dab-D-Phe-Thr-Orn-Dab-Thr]] ({Heptanoyl(6-Me)}-[Dab]T[dS][Dab][Dab][dF]T[Orn][Dab]T; lactam 4-C) | ≤0.03 µg/mL | 0.25 µg/mL (≈ 0.212 µM) | 0.06 µg/mL (≈ 0.0509 µM) | >64 µg/mL | 64 µg/mL (≈ 54.3 µM) | 0.5 µg/mL (≈ 0.424 µM) | ≤0.03 µg/mL | ≤0.03 µg/mL | > 500 µg/mL |
| CC(C)CCCCC(=O)N[C@@H](CCN)C(=O)N[C@H](C(=O)N[C@@H](CN)C(=O)N[C@H]1CCNC(=O)[C@H]([C@@H](C)O)NC(=O)[C@H](CCN)NC(=O)[C@H](CCN)NC(=O)[C@H]([C@@H](C)O)NC(=O)[C@@H](Cc2ccc(CS(=O)(=O)O)cc2)NC(=O)[C@H](CCN)NC1=O)[C@@H](C)O [Compound 116, 6-methylheptanoyl-Dab-Thr-Dap-ring(4-10)[Dab-Dab-D-Phe(4-CH2SO3H)-Thr-Dab-Dab-Thr]] ({Heptanoyl(6-Me)}-[Dab]T[Dap][Dab][Dab][X3]T[Dab][Dab]T; lactam 4-C) | 0.03 µg/mL (≈ 0.0239 µM) | 0.125 µg/mL (≈ 0.0994 µM) | 0.06 µg/mL (≈ 0.0477 µM) | 0.25 µg/mL (≈ 0.199 µM) | 0.25 µg/mL (≈ 0.199 µM) | 0.125 µg/mL (≈ 0.0994 µM) | 0.06 µg/mL (≈ 0.0477 µM) | 0.03 µg/mL (≈ 0.0239 µM) | > 500 µg/mL |
| CC(C)CCCCC(=O)N[C@@H](CCN)C(=O)N[C@H](C(=O)N[C@H](CO)C(=O)N[C@H]1CCNC(=O)[C@H]([C@@H](C)O)NC(=O)[C@H](CCN)NC(=O)[C@H](CCN)NC(=O)[C@H]([C@@H](C)OCS(=O)(=O)O)NC(=O)[C@@H](Cc2ccccc2)NC(=O)[C@H](CCN)NC1=O)[C@@H](C)O [Compound 105, 6-methylheptanoyl-Dab-Thr-D-Ser-ring(4-10)[Dab-Dab-D-Phe-Thr(CH2SO3H)-Dab-Dab-Thr]] ({Heptanoyl(6-Me)}-[Dab]T[dS][Dab][Dab][dF]T(Sulfomethyl)[Dab][Dab]T; lactam 4-C) | 0.03 µg/mL (≈ 0.0238 µM) | 0.125 µg/mL (≈ 0.0993 µM) | 0.06 µg/mL (≈ 0.0477 µM) | 0.25 µg/mL (≈ 0.199 µM) | 0.25 µg/mL (≈ 0.199 µM) | 0.125 µg/mL (≈ 0.0993 µM) | 0.06 µg/mL (≈ 0.0477 µM) | 0.03 µg/mL (≈ 0.0238 µM) | > 500 µg/mL |
| CC(C)CCCCC(=O)N[C@@H](CCN)C(=O)N[C@H](C(=O)N[C@@H](CN)C(=O)N[C@H]1CCNC(=O)[C@H]([C@@H](C)O)NC(=O)[C@H](CCN)NC(=O)[C@H](CCN)NC(=O)[C@H]([C@@H](C)OCS(=O)(=O)O)NC(=O)[C@@H](Cc2ccccc2)NC(=O)[C@H](CCN)NC1=O)[C@@H](C)O [Compound 114, 6-methylheptanoyl-Dab-Thr-Dap-ring(4-10)[Dab-Dab-D-Phe-Thr(CH2SO3H)-Dab-Dab-Thr]] ({Heptanoyl(6-Me)}-[Dab]T[Dap][Dab][Dab][dF]T(Sulfomethyl)[Dab][Dab]T; lactam 4-C) | 0.03 µg/mL (≈ 0.0239 µM) | 0.125 µg/mL (≈ 0.0994 µM) | 0.06 µg/mL (≈ 0.0477 µM) | 0.25 µg/mL (≈ 0.199 µM) | 0.25 µg/mL (≈ 0.199 µM) | 0.125 µg/mL (≈ 0.0994 µM) | 0.06 µg/mL (≈ 0.0477 µM) | 0.03 µg/mL (≈ 0.0239 µM) | > 500 µg/mL |
| CCCCCCCC(=O)N[C@@H](CN)C(=O)N[C@H](C(=O)N[C@H](CCN)C(=O)N[C@H]1CCNC(=O)[C@H]([C@@H](C)O)NC(=O)[C@H](CCN)NC(=O)[C@H](CCN)NC(=O)[C@H](CC(C)C)NC(=O)[C@@H](Cc2ccccc2)NC(=O)[C@H](CCN)NC1=O)[C@@H](C)O [Compound 93, Octanoyl-Dap-Thr-D-Dab-ring(4-10)[Dab-Dab-D-Phe-Leu-Dab-Dab-Thr]] (Octanoyl-[Dap]T[dDab][Dab][Dab][dF]L[Dab][Dab]T; lactam 4-C) | 0.03 µg/mL (≈ 0.0255 µM) | 0.03 µg/mL (≈ 0.0255 µM) | 0.03 µg/mL (≈ 0.0255 µM) | 1 µg/mL (≈ 0.851 µM) | 1 µg/mL (≈ 0.851 µM) | 0.03 µg/mL (≈ 0.0255 µM) | 0.03 µg/mL (≈ 0.0255 µM) | 0.03 µg/mL (≈ 0.0255 µM) | 239 ± 19.1 µg/mL (≈ 204 µM) |
